The subject of series [1] is hTERT promoter (PhTERT) expression. As to the kind of experiment: SEAP assay (PhTERT-SEAP reporter, H1299). In kind it is cell-based, human. The conditions noted are these: Homo sapiens, NCI-H1299, PhTERT-SEAP (H1299). The procedure: H1299 were grown in RPMI 1640 media supplemented with 10% fetal bovine serum, 100 units/mL penicillin and […] streptomycin in a humidified atmosphere with 5% CO2 at 37° C. Culture media were changed every three days. To establish stable cell lines that the expression of hTERT could be monitored by a reporter system, a about 3.3 kbp DNA fragment ranging from −3338 to +1 bp of the hTERT gene (hTERT promoter, PhTERT) was subcloned upstream to a secreted alkaline phosphatase gene (SEAP) and transfected into H1299 bp electroporation. The stable clones were selected using G418. The stable clones derived from H1299 were cultured using conditions that are similar to their parental cells.
Secreted alkaline phosphatase was used as the reporter system to monitor the transcriptional activity of hTERT. Here, about 10^4 cells each were grown in 96-well plates and incubated at 37° C. for 24 hours and changed with fresh media. Varying amounts of drugs were added and cells were incubated for another 24 hours. Culture media were collected and heated at 65° C. for 10 min to inactivate heat-labile phosphatases. An equal amount of SEAP buffer (2 M diethanolamine, 1 mM MgCl2, and 20 mM L-homoarginine) was added to the media and p-nitrophenyl phosphate was added to a final concentration of 12 mM. Absorptions at 405 nm were taken, and the rate of absorption increase is determined (the increasing rate of absorbance at 405 nm was used to represent the activity of SEAP).

Series [2] in a line: MTT assay (relative cell survival), H1299. As to conditions: human, H1299 non-small cell lung cancer cells (PhTERT-SEAP), Relative MTT viability (%). Background: Tetrazolium assays rely on reduction of a dye to a coloured formazan, in cell work by metabolically active cells.
Procedure: (§1) Further, cells were subjected to MTT assay to compare the relative toxicity or effect of each compound on cell proliferation and activity.
(§2) The above-described cells are cultured in a 96-well plate, to which was added with 25 μl MTT solution, and cultured in a 37° C. carbon dioxide incubator for 4 hours. Then, 100 μl Lysis buffer is added and incubated in a 37° C. carbon dioxide incubator overnight. An ELISA reader (Bio-Rad Model 450) is used to read optical density (O.D.) at 550 nm.
(§3) After being subjected to different compound treatments for 72 hours, cells were treated with a fixed amount of MTT solution for 28 hours. Then, DMSO was used to dissolve back formazan, an O. D. value was detected at wavelength in the range of 550/670 nm, and calculated accordingly the cell survival rate (as shown in Table 1).
A further series has as its system H1299 cells. As to the kind of experiment: MTT assay (relative cell survival), H1299. The conditions noted are these: PhTERT-SEAP (H1299), 100 μM.

Procedure for H1299 cells: as §1, §2, §3

With `O=C1c2ccccc2C(=O)c2c1ccc1nc(CCN3CCN(c4ccccn4)CC3)[nH]c21` [CL38, 2-(2-(4-(pyridin-2-yl)piperazin-1-yl)ethyl)-1H-anthra[1,2-d]imidazole-6,11-dione], in series [1] (1 μM, read-out: Relative SEAP activity (%)), the activity at 1 µM stood at 87.6 ± 8.63%. In addition, the activity at 10 µM in series [1] (10 μM, read-out: Relative SEAP activity (%) (converted)) is 62.9%. Besides, the activity at 100 µM in series [1] (100 μM, read-out: Relative SEAP activity (%) (converted)) was 1.49%. The compound also had a viability at 72 h, 1 µM in series [2] (1 μM) of 98 ± 7.72%. Besides, the viability at 72 h, 10 µM in series [2] (10 μM) is 92.8%. The viability at 72 h, 100 µM in series [2] (100 μM) was above 40%. Also, the “Relative MTT viability (%)” value in the series with H1299 cells was 57.03 ± 10.76%.

As usually defined, the viability is a read-out of living cells in per cent, often relative to untreated cells. The low end stands for more harm to the cells, the high end for less harm to the cells.
